Reference: patent US7674451B2, “Cosmetic or pharmaceutical composition comprising peptides, uses and treatment processes” (ISP Investments Inc., priority 2002, dated 2010)
Where a SMILES comes first, the peptide text is derived from it.

System: ERG 1-2 molecule
Assay: Cell differentiation marker ERG 1-2 in HaCat keratinocytes, immunofluorescence
Assay type: cell-based
Settings: HaCat human keratinocytes, 24 hours

quantity of ERG molecules present in the cells (intensity of fluorescence): increases
Compound: N=C(N)NCCC[C@H](N)C(=O)NCC(=O)N[C@@H](CO)C(=O)O [Arg-Gly-Ser] (H-Arg-Gly-Ser-OH)
